A short description of the assay: Antimicrobial activity assay: whole-cell MIC by broth microdilution (NCCLS M7-A6). The class given is cell-based. The method, then:
Whole-cell antimicrobial activity was determined by broth microdilution using the National Committee for Clinical Laboratory Standards (NCCLS) recommended procedure, Document M7-A6, “Methods for Dilution Susceptibility Tests for Bacteria that Grow Aerobically”. The compounds were tested in serial two-fold dilutions ranging from 0.016 to 16 mcg/mL. Compounds were evaluated against a panel of Gram-positive organisms, including Staphylococcus aureus WCUH29, Streptococcus pneumoniae 1629, Streptococcus pyogenes CN 10, and Enterococcus faecalis 2. In addition, compounds were evaluated against a panel of Gram-negative strains including Haemophilus influenzae NEMC1, E. coli 7623, and Moraxella catarrhalis Ravasio. The minimum inhibitory concentration (MIC) was determined as the lowest concentration of compound that inhibited visible growth. A mirror reader was used to assist in determining the MIC endpoint.
Compounds of the present invention have MIC's ≦20 μg/ml versus all the organisms named above.
(In general: In broth dilution the organism is exposed to a series of concentrations in liquid medium.)

Setting [1] is: versus all the organisms named above (S. aureus WCUH29, S. pneumoniae 1629, S. pyogenes CN 10, E. faecalis 2, H. influenzae NEMC1, E. coli 7623, M. catarrhalis Ravasio), read-out: MIC.

Read-outs that look alike come from different tables or passages of the source. Where only a bound is given, the exact number is not on record here.

Take `COc1ccc2ncc(F)c(C(O)CN3CCC(NCc4cc5c(cn4)OCCO5)CC3)c2c1.Cl.Cl` (single isomer, unassigned; enantiomer 1) [Example 156, 2-{4-[(2,3-dihydro[1,4]dioxino[2,3-c]pyridin-7-ylmethyl)amino]-1-piperidinyl}-1-[3-fluoro-6-(methoxy)-4-quinolinyl]ethanol dihydrochloride Enantiomer 1]: the MIC under setting [1] is at most 2 µg/mL. For the molecule `COc1ccc2ncc(F)c(CCN3CCC(C)(NCc4ccc5c(n4)NC(=O)CO5)CC3)c2n1.Cl.Cl` [Example 138, 6-{[(1-{2-[3-fluoro-6-(methoxy)-1,5-naphthyridin-4-yl]ethyl}-4-methyl-4-piperidinyl)amino]methyl}-2H-pyrido[3,2-b][1,4]oxazin-3(4H)-one dihydrochloride], under setting [1], the MIC is at most 2 µg/mL. For `COc1cc(F)c2ncc(Cl)c(CCN3CCC(NCc4ccc5c(n4)NC(=O)CS5)CC3)c2c1` [Example 160, 6-{[(1-{2-[3-chloro-8-fluoro-6-(methoxy)-4-quinolinyl]ethyl}-4-piperidinyl)amino]methyl}-2H-pyrido[3,2-b][1,4]thiazin-3(4H)-one], the MIC under setting [1] is at most 2 µg/mL. Still for that read-out and setting: the value for `Cl.Cl.Fc1ccc2ncc(Cl)c(CCN3CCC(NCc4cc5c(cn4)OCCO5)CC3)c2c1` [Example 26, {1-[2-(3-Chloro-6-fluoro-quinolin-4-yl)-ethyl]-piperidin-4-yl}(2,3-dihydro[1,4]dioxino[2,3-c]pyridin-7-ylmethyl)-amine Dihydrochloride] was at most 2 µg/mL; that for `COc1cc(F)c2ncc(F)c(CCN3CCC(NCc4cc5c(cn4)OCO5)CC3)c2c1.Cl.Cl` [Example 51, 1-{2-[3,8-difluoro-6-(methoxy)-4-quinolinyl]ethyl}-N-([1,3]dioxolo[4,5-c]pyridin-6-ylmethyl)-4-piperidinamine dihydrochloride] was at most 2 µg/mL.

Turning to `COc1ccc2ncc(Cl)c(CCN3CC[C@@H](NCc4cc5c(cn4)OCCO5)[C@H](O)C3)c2n1` (single isomer, unassigned; enantiomer 1) [Example 154, trans-1-{2-[3-chloro-6-(methoxy)-1,5-naphthyridin-4-yl]ethyl}-4-[(2,3-dihydro[1,4]dioxino[2,3-c]pyridin-7-ylmethyl)amino]-3-piperidinol Enantiomer 1], the MIC under setting [1] was at most 2 µg/mL. `COc1ccc2ncc(Cl)c(CCN3CC[C@@H](NCc4ccc5c(n4)NC(=O)CO5)[C@H](O)C3)c2c1.Cl.Cl.Cl` (single isomer, unassigned; enantiomer 2) [Example 18, 6-({(trans)-1-[2-(3-Chloro-6-methoxyquinolin-4-yl)ethyl]3-hydroxypiperidin-4-ylamino}methyl)-4H-pyrido[3,2-b][1,4]oxazin-3-one Trihydrochloride enantiomer 2]: the MIC under setting [1] is at most 2 µg/mL. For the molecule `COc1cc(F)c2ncc(F)c(CCN3CC[C@H](NCc4ccc5c(n4)NC(=O)CO5)[C@H](F)C3)c2c1.Cl.Cl` (single isomer, unassigned; enantiomer 1) [Example 145, cis-6-{[(1-{2-[3,8-difluoro-6-(methoxy)-4-quinolinyl]ethyl}-3-fluoro-4-piperidinyl)amino]methyl}-2H-pyrido[3,2-b][1,4]oxazin-3(4H)-one dihydrochloride, Enantiomer 1], the MIC under setting [1] was at most 2 µg/mL. For the molecule `COc1ccc2ncc(Cl)c(C(CO)CN3CCC(NCc4ccc5c(n4)NC(=O)CS5)CC3)c2n1.Cl.Cl` (stereo not drawn) [Example 105, 6-{[(1-{2-[3-chloro-6-(methoxy)-1,5-naphthyridin-4-yl]-3-hydroxypropyl}-4-piperidinyl)amino]methyl}-2H-pyrido[3,2-b][1,4]thiazin-3(4H)-one dihydrochloride], under setting [1], the MIC was at most 2 µg/mL. Take `COc1ccc2ncc(F)c(CCN3CCC(NCc4cnc5c(c4)NC(=O)CS5)CC3)c2c1.Cl.Cl` [Example 84, 7-{[(1-{2-[3-fluoro-6-(methoxy)-4-quinolinyl]ethyl}-4-piperidinyl)amino]methyl}1H-pyrido[2,3-b][1,4]thiazin-2(3H)-one dihydrochloride]: the MIC under setting [1] was at most 2 µg/mL. Still for that read-out and setting: the value for `COc1cc(F)c2ncc(F)c(CCN3CC[C@H](NCc4cc5c(cn4)OCCO5)[C@H](F)C3)c2c1.Cl.Cl` (single isomer, unassigned; enantiomer 2) [Example 144, cis-1-{2-[3,8-difluoro-6-(methoxy)-4-quinolinyl]ethyl}-N-(2,3-dihydro[1,4]dioxino[2,3-c]pyridin-7-ylmethyl)-3-fluoro-4-piperidinamine dihydrochloride Enantiomer 2] was at most 2 µg/mL; that for `COc1ccc2ncc(Cl)c(CCN3CCC(NCc4cc5c(cn4)OCCO5)(C(N)=O)CC3)c2n1.Cl.Cl` [Example 91, 1-{2-[3-chloro-6-(methoxy)-1,5-naphthyridin-4-yl]ethyl}-4-[(2,3-dihydro[1,4]dioxino[2,3-c]pyridin-7-ylmethyl)amino]-4-piperidinecarboxamide dihydrochloride] was at most 2 µg/mL; that for `Cl.Cl.Clc1cnc2ccc3c(c2c1CCN1CCC(NCc2cc4c(cn2)OCCO4)CC1)OCCO3` [Example 52, {1-[2-(9-Chloro-2,3-dihydro-[1,4]dioxino[2,3-f]quinolin-10-yl)-ethyl]-piperidin-4-yl}-(2,3-dihydro-[1,4]dioxino[2,3-c]pyridin-7-ylmethyl)-amine dihydrochloride] was at most 2 µg/mL. For `COc1ccc2ncc(Cl)c(CCN3CC[C@H](NCc4ccc5c(n4)NC(=O)CO5)[C@H](O)C3)c2c1.Cl.Cl` (single isomer, unassigned; enantiomer 1) [Example 5, 6-({(cis)-1-[2-(3-Chloro-6-methoxy-quinolin-4-yl)-ethyl]-3-hydroxy-piperidin-4-ylamino}-methyl)-4H-pyrido[3,2-b][1,4]oxazin-3-one Dihydrochloride Enantiomer 1], under setting [1], the MIC is at most 2 µg/mL. The same measure, in the same setting: the value for `COc1ccc2ncc(F)c(CCN3CCC(C)(NC(=O)c4ccc5c(n4)NC(=O)CO5)CC3)c2n1` [Example 167, N-(1-{2-[3-fluoro-6-(methoxy)-1,5-naphthyridin-4-yl]ethyl}-4-methyl-4-piperidinyl)-3-oxo-3,4-dihydro-2H-pyrido[3,2-b][1,4]oxazine-6-carboxamide] was at most 2 µg/mL; that for `COc1cc(F)c2ncc(F)c(CCN3CCC(NCc4cc5c(cn4)OCCO5)CC3)c2c1.Cl.Cl` [Example 47, 1-{2-[3,8-difluoro-6-(methoxy)-4-quinolinyl]ethyl}-N-(2,3-dihydro[1,4]dioxino[2,3-c]pyridin-7-ylmethyl)-4-piperidinamine dihydrochloride] was at most 2 µg/mL.

For the molecule `COc1ccc2ncc(F)c(CCN3CC[C@@H](NCc4cc5c(cn4)OCCO5)[C@H](O)C3)c2c1.Cl.Cl` (relative stereo) [Example 117, trans-4-[(2,3-dihydro[1,4]dioxino[2,3-c]pyridin-7-ylmethyl)amino]-1-{2-[3-fluoro-6-(methoxy)-4-quinolinyl]ethyl}-3-piperidinol dihydrochloride], the MIC under setting [1] is at most 2 µg/mL. As to `COc1cc(F)c2ncc(F)c(CCN3CCC(NCc4cnc5c(c4)NC(=O)CS5)CC3)c2c1.Cl.Cl` [Example 48, 7-{[(1-{2-[3,8-Difluoro-6-(methoxy)-4-quinolinyl]ethyl}-4-piperidinyl)amino]methyl}-1H-pyrido[2,3-b][1,4]thiazin-2(3H)-one dihydrochloride], under setting [1], the MIC was at most 2 µg/mL. `COc1ccc2ncc(Cl)c(C(O)CN3CCC(NCc4ccc5c(n4)NC(=O)CO5)CC3)c2n1.Cl.Cl` (racemic) [Example 1, 6-({1-[(Racemic)-2-(3-Chloro-6-methoxy-[1,5]naphthyridin-4-yl)-2hydroxy-ethyl]-piperidin-4-ylamino}-methyl)-4H-pyrido[3,2-b][1,4]oxazin-3-one Dihydrochloride] had an MIC of at most 2 µg/mL. Consider `COc1ccc2ncc(F)c(CCN3CCC(NCc4cc5c(cn4)OCS5)CC3)c2n1.Cl.Cl` [Example 61, 1-{2-[3-Fluoro-6-(methoxy)-1,5-naphthyridin-4-yl]ethyl}-N-([1,3]oxathiolo[5,4-c]pyridin-6-ylmethyl)-4-piperidinamine dihydrochloride], for which the MIC under setting [1] was at most 2 µg/mL. Consider `Cl.Cl.O=C1CSc2ccc(CNC3CCN(CCc4c(Cl)cnc5ccc(F)cc45)CC3)nc2N1` [Example 25, 6-({1-[2-(3-Chloro-6-fluoro-quinolin-4-yl)-ethyl]-piperidin-4-ylamino}-methyl)-4H-pyrido[3,2-b][1,4]thiazin-3-one Dihydrochloride], for which the MIC under setting [1] was at most 2 µg/mL. Consider `COc1cc(F)c2ncc(F)c(CCN3CC[C@H](NCc4ccc5c(n4)NC(=O)CS5)[C@H](O)C3)c2c1.Cl.Cl` (single isomer, unassigned; enantiomer 1) [Example 73], for which the MIC under setting [1] was at most 2 µg/mL. For the molecule `COc1ccc2ncc(Cl)c(C(O)CN3CCC(NCc4cc5c(cn4)OCCO5)CC3)c2n1.Cl.Cl` (single isomer, unassigned; enantiomer 1) [Example 35, {1-[2-(3-Chloro-6-methoxy-[1,5]naphthyridin-4-yl)-2-hydroxyethyl]-piperidin-4-yl}-(2,3-dihydro-[1,4]dioxino[2,3-c]pyridin-7-ylmethyl)-amine Dihydrochloride Enantiomer 1], the MIC under setting [1] was at most 2 µg/mL. For the molecule `COc1ccc2ncc(F)c(CCN3CCC(NCc4cc5c(cn4)OCCS5)CC3)c2c1.Cl.Cl` [Example 86, N-(2,3-dihydro[1,4]oxathiino[2,3-c]pyridin-7-ylmethyl)-1-{2-[3-fluoro-6-(methoxy)-4-quinolinyl]ethyl}-4-piperidinamine dihydrochloride], the MIC under setting [1] is at most 2 µg/mL.

The record behind these values is patent US20060041123A1, “Antibacterial agents” (priority 2002, published 2006).
